Test results from patent publication US6017933A, “Mannich bases of conjugated styryl ketones” (University of Saskatchewan Technologies Inc., priority 1999, dated 2000).

Experiments:
CEM cells = test: Cytotoxicity, CEM human T-lymphocytes; details: for IC50: Homo sapiens, CCRF-CEM, read-out: CEM cells IC50; for TIL1210 (CEM cells): IC50 T-lymphocytes (CEM)/IC50 L1210; for TIP388 (CEM cells): IC50 T-lymphocytes (CEM)/IC50 P388; for TIht (CEM cells): IC50 T-lymphocytes (CEM)/IC50 human tumors
human tumors = test: Cytotoxicity, human tumor cell line panel (approximately 55 lines); details: for Selective toxicity towards leukemia: human tumor screen; for IC50: read-out: human tumors IC50, mean graph midpoint, approximately 55 cell lines, hydrobromide salts used for 4a, 11a-e
P388 cells = test: Cytotoxicity, murine P388 leukemic cells (P388 D1); details: read-out: P388 cells IC50
L1210 cells = test: Cytotoxicity, murine L1210 leukemic cells; assay type: cell-based; details: Mus musculus, mean
Molt 4/C8 cells = test: Cytotoxicity, Molt 4/C8 human T-lymphocytes; details: for TIL1210 (Molt 4/C8 cells): IC50 T-lymphocytes (Molt 4/C8)/IC50 L1210; for TIP388 (Molt 4/C8 cells): IC50 T-lymphocytes (Molt 4/C8)/IC50 P388; for TIht (Molt 4/C8 cells): IC50 T-lymphocytes (Molt 4/C8)/IC50 human tumors; for IC50: read-out: Molt 4/C8 cells IC50

SMILES | IC50 (CEM cells) [µM] | TIL1210 (CEM cells) (CEM cells) | TIP388 (CEM cells) (CEM cells) | TIht (CEM cells) (CEM cells) | Selective toxicity towards leukemia (human tumors) | IC50 (human tumors) [µM] | IC50 (P388 cells) [µM] | IC50 (L1210 cells) [µM] | TIL1210 (Molt 4/C8 cells) (Molt 4/C8 cells) | TIP388 (Molt 4/C8 cells) (Molt 4/C8 cells) | TIht (Molt 4/C8 cells) (Molt 4/C8 cells) | IC50 (Molt 4/C8 cells) [µM] | activity relative to melphalan, human tumors (human tumors)
CCN1CCC(O)(/C=C/c2ccc(OC)cc2)C(C(=O)/C=C/c2ccc(OC)cc2)C1 (stereo not shown) [Compound 9e] | 11.7 | 0.46 | 2.35 | 1.41 | this property was also noted | 8.31 | 5 | 25.6 | 0.81 | 4.14 | 2.49 | 20.7 | 
CC[N+]1(C)CCC(O)(/C=C/c2ccc(C)cc2)C(C(=O)/C=C/c2ccc(C)cc2)C1 (stereo not shown) [Compound 10d] | 3.92 | 0.28 | 6.32 |  |  |  | 0.62 | 13.8 | 0.45 | 9.98 |  | 6.19 ± 0.7 | 
CCN1CCC(O)(c2ccccc2)C(C(=O)c2ccccc2)C1 (stereo not shown) [Compound 11a] | 45.7 | 2.28 | 42.70 | 1.51 |  | 30.2 | 1.07 | 20.1 | 1.80 | 33.78 | 1.20 | 36.1 | 
CCN1CCC(O)(c2ccc(Cl)cc2)C(C(=O)c2ccc(Cl)cc2)C1 (stereo not shown) [Compound 11b] | 102 | 6.52 | 19.89 | 1.23 |  | 83.2 | 5.14 | 15.7 | 3.68 | 11.21 | 0.69 | 57.6 | 
CCN1CCC(O)(c2ccc(Cl)c(Cl)c2)C(C(=O)c2ccc(Cl)c(Cl)c2)C1 (stereo not shown) [Compound 11c] |  |  |  |  |  | 16.6 | 3.11 |  |  |  |  |  | 
CCN1CCC(O)(c2ccc(C)cc2)C(C(=O)c2ccc(C)cc2)C1 (stereo not shown) [Compound 11d] | 38.7 | 1.01 | 4.50 | 1.54 |  | 25.1 | 8.6 | 38.2 | 0.89 | 3.97 | 1.36 | 34.2 | 
CCN1CCC(O)(c2ccc(OC)cc2)C(C(=O)c2ccc(OC)cc2)C1 (stereo not shown) [Compound 11e] | 39.9 | 2.96 | 9.57 | 2.05 |  | 19.5 | 4.17 | 13.5 | 2.94 | 9.51 | 2.04 | 39.7 | 
CCN1CCC(O)(c2ccc(O)cc2)C(C(=O)c2ccc(O)cc2)C1 (stereo not shown) [Compound 11f] | 42.6 | 4.37 | 30.46 | 2.04 |  | 20.9 | 1.4 | 9.75 | 4.32 | 30.09 | 2.02 | 42.1 | 
CC[N+]1(C)CCC(O)(c2ccccc2)C(C(=O)c2ccccc2)C1 (stereo not shown) [Compound 12a] |  |  |  |  | Selective toxicity towards leukemia was observed | 12.9 | 1.3 |  |  |  |  |  | 
CC[N+]1(C)CCC(O)(c2ccc(Cl)cc2)C(C(=O)c2ccc(Cl)cc2)C1 (stereo not shown) [Compound 12b] |  |  |  |  | Selective toxicity towards leukemia was observed | 12.9 | 1.5 |  |  |  |  |  | 
CC[N+]1(C)CCC(O)(c2ccc(Cl)c(Cl)c2)C(C(=O)c2ccc(Cl)c(Cl)c2)C1 (stereo not shown) [Compound 12c] | 25.8 | 0.77 | 11.20 | 2.70 |  | 9.54 | 2.3 | 33.6 | 0.84 | 12.23 | 2.95 | 28.1 | 
CC[N+]1(C)CCC(O)(c2ccc(C)cc2)C(C(=O)c2ccc(C)cc2)C1 (stereo not shown) [Compound 12d] |  |  |  |  |  | 50.1 | 2.1 |  |  |  |  |  | five times more potent than melphalan
CC[N+]1(C)CCC(O)(c2ccc(OC)cc2)C(C(=O)c2ccc(OC)cc2)C1 (stereo not shown) [Compound 12e] |  |  |  |  | Selective toxicity towards leukemia was observed | 10.2 | 0.98 |  |  |  |  |  | 
